Laboratory results: patent EP4772505A1, “COMPOUND FOR DEGRADING ANDROGEN RECEPTOR AND MEDICAL USE THEREOF” (Ubix Therapeutics, Inc., priority 2023, dated 2025)

Target: T1, Androgen Receptor (AR) (Homo sapiens, UniProt P10275)
T1 sequence (P10275 1-920): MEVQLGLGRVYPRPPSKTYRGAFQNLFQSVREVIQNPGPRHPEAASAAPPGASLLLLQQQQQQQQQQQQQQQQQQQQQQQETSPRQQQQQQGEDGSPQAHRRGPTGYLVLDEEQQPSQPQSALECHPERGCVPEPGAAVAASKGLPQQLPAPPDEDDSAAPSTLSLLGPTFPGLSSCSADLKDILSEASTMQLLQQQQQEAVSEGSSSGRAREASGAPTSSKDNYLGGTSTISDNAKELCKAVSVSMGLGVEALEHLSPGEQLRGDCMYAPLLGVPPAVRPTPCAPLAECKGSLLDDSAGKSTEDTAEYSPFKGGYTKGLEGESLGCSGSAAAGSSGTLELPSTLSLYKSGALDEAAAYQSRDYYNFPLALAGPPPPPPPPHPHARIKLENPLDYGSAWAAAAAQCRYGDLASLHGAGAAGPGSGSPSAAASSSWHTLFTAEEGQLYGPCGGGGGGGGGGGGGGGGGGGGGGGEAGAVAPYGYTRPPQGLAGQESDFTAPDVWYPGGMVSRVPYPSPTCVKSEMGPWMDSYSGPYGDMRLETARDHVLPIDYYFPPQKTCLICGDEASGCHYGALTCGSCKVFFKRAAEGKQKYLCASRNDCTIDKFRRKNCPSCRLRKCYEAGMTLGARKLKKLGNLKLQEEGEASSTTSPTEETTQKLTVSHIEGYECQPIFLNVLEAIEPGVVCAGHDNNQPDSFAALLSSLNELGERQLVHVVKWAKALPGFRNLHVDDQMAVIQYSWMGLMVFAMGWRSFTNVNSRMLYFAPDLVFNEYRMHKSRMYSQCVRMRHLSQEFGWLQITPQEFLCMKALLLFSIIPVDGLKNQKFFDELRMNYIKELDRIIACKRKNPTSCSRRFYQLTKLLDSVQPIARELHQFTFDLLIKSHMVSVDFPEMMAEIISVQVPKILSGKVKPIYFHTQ
Assay: Measurement of AR protein degradation in VCaP cells by Western blotting
Format: cell-based
Design: endogenous in cells; host or cells: VCaP
Experimental: The amount of AR protein present in LNCaP or VCaP cells was measured after treating them with the synthesized compound. The amount of AR protein was measured using Western blotting. The protocol for the experiments using LNCaP or VCaP cells was as follows.
[Culture] LNCaP cells were resuspended in RPMI1640 medium + HEPES (Hyclone, SH30255.01), 10% FBS (Hyclone, SV30207.02), and 1% Penicillin-streptomycin (Welgene, LS 202-02). 3 x 10^5 cells/mL were seeded in 12-well plates (1 mL per well) and cultured for 3 days. VCaP cells were resuspended in IMDM MEDIUM (Hyclone, SH30228.01), 20% FBS (Hyclone, SV30207.02), and 1% Penicillin-streptomycin (Welgene, LS 202-02), seeded at 9 x 10^5/mL in 1 mL per 12-well plate, and cultured for 3 days.
[Compound Treatment] 10 µL of 100x stock (e.g., 0.1, 1, 10 µM) compound solution at the final compound treatment concentration (e.g., 0.001, 0.01, 0.1 µM) was added to each well in 1 mL media, and cells were harvested after 20 hours. For DC50 measurement, 100x stock (0.01, 0.1, 1, 10, 100, 1000 µM) compound solutions at the final compound treatment concentration (0.0001, 0.001, 0.01, 0.1, 1, 10 µM) were used.
[Cell lysis] The cell pellet was suspended using 1% SDS lysis buffer (50 mM Tris, 1 mM EDTA, 1% SDS, pH 8.0, 0.5 mM PMSF, 1x Protease/Phosphatase inhibitor Cocktail (Cell Signaling Technology, 5872S)), and sonication (70% AMP, 10 cycles (30 sec ON/59 sec OFF)) was performed. After centrifugation at 4°C and 20,000 g for 20 minutes, the cell lysate was obtained and transferred to a new tube.
[Protein Quantification] A BCA protein assay (SMART™ BCA Protein Assay Kit, iNtRON Biotechnology, 21071) was performed using a 96-well microplate. 5 µL of cell lysate and 5 µL of 1% SDS lysis buffer were added to each well of the 96-well plate, followed by an additional 200 µL of BCA reagent (Reagent A: Reagent B = 50:1). The wells were incubated at 37°C for 30 minutes and cooled to room temperature for 10 minutes. After shaking for 10 seconds, the absorbance was measured at a wavelength of 562 nm. The unknown protein concentration was determined using a BSA standard curve (0, 0.125, 0.25, 0.5, 1, 2 mg/mL). Western blotting samples were prepared by mixing cell lysate, 1% SDS lysis buffer, 4x NuPAGE™ LDS Sample buffer (Invitrogen, NP0008), and 10X NuPAGE™ Sample Reducing Agent (Invitrogen, NP0009) and boiling at 70°C for 10 minutes.
[Electrophoresis] 10 µg of protein sample was loaded into each well of a NuPAGE™ 4 to 12%, Bis-Tris, 1.0 mm Mini Protein Gel, 15-well, 17-well, or 26-well (Invitrogen, NP0323BOX, NP0329BOX, or WG1403BOX) and electrophoresed for 40 minutes using NuPAGE™MES SDS Running Buffer (Invitrogen, NP0002) at 200 V (constant V).
[Transfer] Transfer was performed for 15 or 18 minutes using the electrophoresed gel and the Trans-Blot® Turbo™ Transfer Starter System (Bio-RAD, #17001918, Mini Nitrocellulose) at 1.3 A (constant A) and 25 V (limit V). To confirm protein transfer, 15 mL of Ponceau S solution (Sigma, P7170-1L) was used to stain for 1 minute, and then washed to check the degree of transfer.
[Blocking] The membrane for AR and GAPDH detection was blocked with 5% skim milk/0.2% TBST (Skim milk: BD, 232100/ 20X TBS: Biosesang, TR2008-100-00/ 10% Tween 20 Solution: Bio-RAD, #161-0781) for 45 minutes.
[Antibodies and Detection] Primary AR antibody (Androgen Receptor: CST, 5153S) was mixed with 5% skim milk/0.2% TBST at a ratio of 1:1,000 and reacted at room temperature for 3 hours or at 4°C overnight. Primary GAPDH antibody (CST, 2118S) was mixed with 5% skim milk/0.2% TBST at a ratio of 1:2,000 and reacted at room temperature for 3 hours or at 4°C overnight. Afterwards, TBST (0.2% Tween 20) was used for washing three times every 5 minutes. Secondary antibody to AR antibody, Anti-rabbit IgG, HRP-linked Antibody (CST, 7074S), was mixed with 5% skim milk/0.2% TBST at a ratio of 1:5,000 and reacted at room temperature for 45 minutes. […]

[1] = VCaP, 20 h, read-out: AR degradation in VCaP cells (%)

Compound: N#Cc1ccc(N2CCC(C(=O)Nc3ccc(OC4CCN(CC5CCN(c6ccc(N[C@H]7CCC(=O)NC7=O)cc6F)CC5)CC4)cn3)CC2)cc1C(F)(F)F [Example 2, (S)-1-(4-cyano-3-(trifluoromethyl)phenyl)-N-(5-((1-((1-(4-((2,6-dioxopiperidin-3-yl)amino)-2-fluorophenyl)piperidin-4-yl)methyl)piperidin-4-yl)oxy)pyridin-2-yl)piperidine-4-carboxamide]
- Dmax at 0.01 µM [1]: 83%
- Dmax at 0.1 µM [1]: 99%
- Dmax (VCaP, read-out: AR degradation in VCaP cells Dmax (%)): 99%
- DC50 (read-out: AR degradation in VCaP cells DC50, VCaP cells, 20 hours): 0.19 nM
